Molecules are shown by their SMILES.

The nature of one data set: The drug is tested on Enterobacter cancerogenus strain: ATCC35316 for biotransformation. The drug concentrations were measured before and after a 12-h incubation by liquid-chromatography-coupled mass spectrometry (LC–MS). The following applies: 2 µM.
Consider `CO[C@]12C[C@@H](COC(=O)c3cncc(Br)c3)CN(C)[C@@H]1Cc1cn(C)c3cccc2c13` [NICERGOLINE], for which the “Bacterial Biotransformation” value is “Compound NOT metabolized”.
Consider `CN1CCOC(c2ccccc2)c2ccccc2C1` (stereo not drawn) [NEFOPAM], for which the “Bacterial Biotransformation” value is given as “Compound NOT metabolized”.

For the next data set the following is noted: enterocloster bolteae, 12 h, 2 µM.
Description: The drug is tested on Clostridium bolteae strain: ATCCBAA-613 for biotransformation. The drug concentrations were measured before and after a 12-h incubation by liquid-chromatography-coupled mass spectrometry (LC–MS)
Regarding `CN1CCOC(c2ccccc2)c2ccccc2C1` (stereo not drawn) [NEFOPAM], the “Bacterial Biotransformation” value was “Compound NOT metabolized”.

The nature of another data set: The drug is tested on Dorea formicigenerans strain: ATCC27755 for biotransformation. The drug concentrations were measured before and after a 12-h incubation by liquid-chromatography-coupled mass spectrometry (LC–MS). Particulars: 2 µM.
As to `CO[C@]12C[C@@H](COC(=O)c3cncc(Br)c3)CN(C)[C@@H]1Cc1cn(C)c3cccc2c13` [NICERGOLINE], the “Bacterial Biotransformation” value is listed as “Compound NOT metabolized”.
Consider `CN1CCOC(c2ccccc2)c2ccccc2C1` (stereo not drawn) [NEFOPAM], for which the “Bacterial Biotransformation” value was “Compound NOT metabolized”.

The nature of a further data set: The drug is tested on Clostridium symbiosum strain: ATCC14940 for biotransformation. The drug concentrations were measured before and after a 12-h incubation by liquid-chromatography-coupled mass spectrometry (LC–MS). Particulars: 2 µM.
Turning to `CO[C@]12C[C@@H](COC(=O)c3cncc(Br)c3)CN(C)[C@@H]1Cc1cn(C)c3cccc2c13` [NICERGOLINE], the “Bacterial Biotransformation” value was “Compound NOT metabolized”.
`CN1CCOC(c2ccccc2)c2ccccc2C1` (stereo not drawn) [NEFOPAM]: the “Bacterial Biotransformation” value is listed as “Compound NOT metabolized”.

The next data set in a line: The drug is tested on Ruminococcus torques strain: ATCC27756 for biotransformation. The drug concentrations were measured before and after a 12-h incubation by liquid-chromatography-coupled mass spectrometry (LC–MS). Type of data set: ADME. Details: dose 2 uM, timepoint 0 vs 12 hours. The following applies: 2 µM.
For `CO[C@]12C[C@@H](COC(=O)c3cncc(Br)c3)CN(C)[C@@H]1Cc1cn(C)c3cccc2c13` [NICERGOLINE], the “Bacterial Biotransformation” value is listed as “Compound NOT metabolized”.
Same read-out and setting: the value for `CN1CCOC(c2ccccc2)c2ccccc2C1` (stereo not drawn) [NEFOPAM] was “Compound NOT metabolized”.

The next data set can be described thus: The drug is tested on Collinsella intestinalis strain: DSM13280 for biotransformation. The drug concentrations were measured before and after a 12-h incubation by liquid-chromatography-coupled mass spectrometry (LC–MS). Particulars: 2 µM.
As for `CO[C@]12C[C@@H](COC(=O)c3cncc(Br)c3)CN(C)[C@@H]1Cc1cn(C)c3cccc2c13` [NICERGOLINE], the “Bacterial Biotransformation” value was “Compound NOT metabolized”.
The same measure, in the same setting: the result for `CN1CCOC(c2ccccc2)c2ccccc2C1` (stereo not drawn) [NEFOPAM] reads “Compound NOT metabolized”.

A further data set in a line: The drug is tested on Bacteroides coprophilus strain: DSM18228 for biotransformation. The drug concentrations were measured before and after a 12-h incubation by liquid-chromatography-coupled mass spectrometry (LC–MS). The following applies: 2 µM.
With `CO[C@]12C[C@@H](COC(=O)c3cncc(Br)c3)CN(C)[C@@H]1Cc1cn(C)c3cccc2c13` [NICERGOLINE], the “Bacterial Biotransformation” value is “Compound NOT metabolized”.
Same read-out and setting: the result for `CN1CCOC(c2ccccc2)c2ccccc2C1` (stereo not drawn) [NEFOPAM] reads “Compound NOT metabolized”.

A further data set can be described thus: The drug is tested on Coprococcus comes strain: ATCC27758 for biotransformation. The drug concentrations were measured before and after a 12-h incubation by liquid-chromatography-coupled mass spectrometry (LC–MS). Type of data set: ADME. More on the design: dose 2 uM, timepoint 0 vs 12 hours. Particulars: 2 µM.
`CN1CCOC(c2ccccc2)c2ccccc2C1` (stereo not drawn) [NEFOPAM]: the “Bacterial Biotransformation” value is “Compound NOT metabolized”.

A short description of a further data set: The drug is tested on Eubacterium rectale strain: ATCC33656 for biotransformation. The drug concentrations were measured before and after a 12-h incubation by liquid-chromatography-coupled mass spectrometry (LC–MS). The following applies: agathobacter rectalis, 2 µM.
As for `CN1CCOC(c2ccccc2)c2ccccc2C1` (stereo not drawn) [NEFOPAM], the “Bacterial Biotransformation” value was “Compound NOT metabolized”.

A further data set in a line: The drug is tested on Parabacteroides merdae strain: ATCC43184 for biotransformation. The drug concentrations were measured before and after a 12-h incubation by liquid-chromatography-coupled mass spectrometry (LC–MS). The following applies: 2 µM.
`CO[C@]12C[C@@H](COC(=O)c3cncc(Br)c3)CN(C)[C@@H]1Cc1cn(C)c3cccc2c13` [NICERGOLINE]: the “Bacterial Biotransformation” value is given as “Compound NOT metabolized”.
Same read-out and setting: the value for `CN1CCOC(c2ccccc2)c2ccccc2C1` (stereo not drawn) [NEFOPAM] was “Compound NOT metabolized”.

The next data set in a line: The drug is tested on Bacteroides ovatus strain: ATCC8483 for biotransformation. The drug concentrations were measured before and after a 12-h incubation by liquid-chromatography-coupled mass spectrometry (LC–MS). The following applies: 2 µM.
On to `CO[C@]12C[C@@H](COC(=O)c3cncc(Br)c3)CN(C)[C@@H]1Cc1cn(C)c3cccc2c13` [NICERGOLINE], for which the “Bacterial Biotransformation” value is listed as “Compound NOT metabolized”.
On the same count and under the same terms, the value for `CN1CCOC(c2ccccc2)c2ccccc2C1` (stereo not drawn) [NEFOPAM] was “Compound NOT metabolized”.

A short description of the next data set: The drug is tested on Subdoligranulum variabile strain: DSM15176 for biotransformation. The drug concentrations were measured before and after a 12-h incubation by liquid-chromatography-coupled mass spectrometry (LC–MS). The following applies: 2 µM.
Turning to `CO[C@]12C[C@@H](COC(=O)c3cncc(Br)c3)CN(C)[C@@H]1Cc1cn(C)c3cccc2c13` [NICERGOLINE], the “Bacterial Biotransformation” value is recorded as “Compound NOT metabolized”.
Same read-out and setting: the result for `CN1CCOC(c2ccccc2)c2ccccc2C1` (stereo not drawn) [NEFOPAM] reads “Compound NOT metabolized”.

A short description of the next data set: The drug is tested on Bacteroides fragilis strain: ATCC43859 for biotransformation. The drug concentrations were measured before and after a 12-h incubation by liquid-chromatography-coupled mass spectrometry (LC–MS). Particulars: 2 µM.
Turning to `CO[C@]12C[C@@H](COC(=O)c3cncc(Br)c3)CN(C)[C@@H]1Cc1cn(C)c3cccc2c13` [NICERGOLINE], the “Bacterial Biotransformation” value was “Compound NOT metabolized”.
As to `CN1CCOC(c2ccccc2)c2ccccc2C1` (stereo not drawn) [NEFOPAM], the “Bacterial Biotransformation” value was “Compound NOT metabolized”.

Another data set is described as follows: The drug is tested on Blautia luti strain: DSM14534 for biotransformation. The drug concentrations were measured before and after a 12-h incubation by liquid-chromatography-coupled mass spectrometry (LC–MS). Type of data set: ADME. More on the design: dose 2 uM, timepoint 0 vs 12 hours. The following applies: 2 µM.
Turning to `CO[C@]12C[C@@H](COC(=O)c3cncc(Br)c3)CN(C)[C@@H]1Cc1cn(C)c3cccc2c13` [NICERGOLINE], the “Bacterial Biotransformation” value is given as “Compound NOT metabolized”.
As for `CN1CCOC(c2ccccc2)c2ccccc2C1` (stereo not drawn) [NEFOPAM], the “Bacterial Biotransformation” value is on record as “Compound NOT metabolized”.

A short description of a further data set: The drug is tested on Edwardsiella tarda strain: ATCC23685 for biotransformation. The drug concentrations were measured before and after a 12-h incubation by liquid-chromatography-coupled mass spectrometry (LC–MS). Particulars: 2 µM.
`CO[C@]12C[C@@H](COC(=O)c3cncc(Br)c3)CN(C)[C@@H]1Cc1cn(C)c3cccc2c13` [NICERGOLINE]: the “Bacterial Biotransformation” value is listed as “Compound NOT metabolized”.
As to `CN1CCOC(c2ccccc2)c2ccccc2C1` (stereo not drawn) [NEFOPAM], the “Bacterial Biotransformation” value is given as “Compound NOT metabolized”.

A further data set in a line: The drug is tested on Bacteroides fragilis strain: HMW610 for biotransformation. The drug concentrations were measured before and after a 12-h incubation by liquid-chromatography-coupled mass spectrometry (LC–MS). Particulars: 2 µM.
For `CN1CCOC(c2ccccc2)c2ccccc2C1` (stereo not drawn) [NEFOPAM], the “Bacterial Biotransformation” value is recorded as “Compound NOT metabolized”.

A further data set can be described thus: The drug is tested on Bacteroides pectinophilus strain: ATCC43243 for biotransformation. The drug concentrations were measured before and after a 12-h incubation by liquid-chromatography-coupled mass spectrometry (LC–MS). The following applies: 2 µM.
For the compound `CO[C@]12C[C@@H](COC(=O)c3cncc(Br)c3)CN(C)[C@@H]1Cc1cn(C)c3cccc2c13` [NICERGOLINE], the “Bacterial Biotransformation” value is “Compound NOT metabolized”.
As for `CN1CCOC(c2ccccc2)c2ccccc2C1` (stereo not drawn) [NEFOPAM], the “Bacterial Biotransformation” value is recorded as “Compound NOT metabolized”.

The next data set is described as follows: The drug is tested on Alistipes indistinctus strain: DSM22520 for biotransformation. The drug concentrations were measured before and after a 12-h incubation by liquid-chromatography-coupled mass spectrometry (LC–MS). The following applies: 2 µM.
With `CO[C@]12C[C@@H](COC(=O)c3cncc(Br)c3)CN(C)[C@@H]1Cc1cn(C)c3cccc2c13` [NICERGOLINE], the “Bacterial Biotransformation” value is recorded as “Compound NOT metabolized”.

For a further data set the following is noted: bacteroides stercoris, 12 h, 2 µM.
Description: The drug is tested on Bacteroides stercoris strain: ATCC43183 for biotransformation. The drug concentrations were measured before and after a 12-h incubation by liquid-chromatography-coupled mass spectrometry (LC–MS)
`CO[C@]12C[C@@H](COC(=O)c3cncc(Br)c3)CN(C)[C@@H]1Cc1cn(C)c3cccc2c13` [NICERGOLINE]: the “Bacterial Biotransformation” value is reported as “Compound NOT metabolized”.
Same read-out and setting: the result for `CN1CCOC(c2ccccc2)c2ccccc2C1` (stereo not drawn) [NEFOPAM] reads “Compound NOT metabolized”.

The record behind these values is ChEMBL document CHEMBL5303573, “Mapping human microbiome drug metabolism by gut bacteria and their genes” (Nature, 2019).
